Experiments:
control soleus muscle = assay: Effect of MCP inhibitors on control muscle protein content; format: in vivo, rat; settings: Table 1; treated soleus versus vehicle-injected contralateral muscle
Description: (§1) Juvenile female Sprague-Dawley rates (80-90 g) were tail-cast, hind limb suspended as in Jetspers, S. R. and Tischler, M. E., (1984) J. Appl. Physiol. 57: 1472-1479. The animal's hind limbs were elevated above the floor of the cage with each animal housed individually. Animals had free access to food and water, and were weighed at the time of suspension and at time of termination. During the suspension period the animals were checked daily to ensure that their toes were not touching the floor of the cage, and that there was no swelling of the tail due to the cast.
(§2) Animals were treated as in group B, except that 1 mM MCP inhibitor, contained in dimethysulfoxide (DMSO), was injected into the soleus of one leg and DMSO only into the contralateral soleus. Thus each experiment consisted of two control groups and the testing of MCP inhibitors of the invention. The completion of five such experiments with different pairs of inhibitors provided for an "n" value of 10 for testing each MCP inhibitor and with each tested in two different shipments of animals.
(§3) After the animal was sacrificed, the soleus was excised, trimmed of fat and connective tissue, and carefully weighed. The muscle was then homogenized in 10% trichloroacetic acid (TCA) and the precipitated protein pelleted by centrifugation. The pellet was then washed once with 10% TCA and once with ethanol:ether (1:1). The final pellet was solubilized in 4 ml of 1N sodium hydroxide. The sample was then analyzed for protein content by the biuret procedure, using albumin as a standard.
The effect of MCP inhibitors on total muscle protein content was examined primarily by paired comparison with the untreated contralateral muscle. The ratio of contents was calculated and then analyzed statistically by analysis of variance ("ANOVA"). The left leg was always the treated leg so that the protein content ratios could be compared to the non-treated control animals as well. In this way, a significant difference can be shown by comparing the protein content of the two legs, as well as the relative effectiveness of the tested MCP inhibitors. […]

[1] = test system: unweighting atrophy of the soleus muscle; assay: Inhibition of unweighting atrophy of the soleus muscle in juvenile rats (muscle protein content); format: in vivo, rat; settings: for Protein, End (day 3 of unweighting) / Effect (%), change in protein content during day 3 of unweighting: Table 2; for Protein, End (day 3 of unweighting): 24 hours after in situ soleus injection at day 2 of unweighting, mersalyl 200 nM aqueous; for Protein, End (day 3 of unweighting) / Protein, Treatment (unweighted muscle): MCP inhibitor 1 mM in DMSO; for Effect (%), change in protein content during day 3 of unweighting: End versus Start (estimated day 2 content); for Effect (%) on unweighted muscle protein / Protein, Treatment (unweighted muscle): Table 3; for Effect (%) on unweighted muscle protein: Treatment versus Vehicle contralateral muscle; for Protein, Treatment (unweighted muscle): treated soleus, contralateral muscle received vehicle, mersalyl 200 nM
Experimental: The effect of several inhibitors on the unweighting atrophy of the soleus muscle in juvenile rats was determined. See Tischler, M. E. (1990) Metabolism 39/7: 756-763 (hereinafter "Tischler--1990") for a general discussion of the procedure.
as §1
Each experiment began with the suspension of 20 rats which were randomly divided into 4 groups of 5 animals each. Group A was suspended for just 2 days and provided baseline data to approximate the soleus muscle size in other animals suspended for longer times. Average body weights for the groups at the outset of the study were compared and used as a correction factor for body size differences. […] See Tischler--1990. At 2 days after unweighting commenced, an aqueous solution of mersalyl (200 nM; 4 μl/100 g initial body wt) was injected into one soleus, as described previously. The contralateral muscle was injected with a similar volume of 0.9% saline ("Vehicle"). The animals were maintained under Innovar-vet (10 μl/100 g body wt) tranquilization during the in situ injection procedure. After the injections, the animals were suspended for an additional 24 hours and the soleus was removed. Groups C and D for each experiment were used for testing each of two different embodiments of the disclosed compounds.
as §2, §3
The effect of MCP inhibitors on total muscle protein content was examined primarily by paired comparison with the untreated contralateral muscle. The ratio of contents was calculated and then analyzed statistically by analysis of variance ("ANOVA"). The left leg was always the treated leg so that the protein content ratios could be compared to the non-treated control animals as well. In this way, a significant difference can be shown by comparing the protein content of the two legs, as well as the relative effectiveness of the tested MCP inhibitors. A paired student test was also performed for the effect of each separate treatment. The non-treated control data also provided an estimate of protein content of day 2. This allowed approximation of the protein changes over the 24 hours of treatment for each of the Groups B, C, and D.

[2] = test system: processing of electroporated OVA by M12.B6 cells; assay: Inhibition of MHC-I processing of electroporated OVA; format: cell-based, mouse; settings: FIGS. 2 and 3, IL-2 secretion by T hybridoma cells
Experimental: Compounds of the invention were assayed for the ability to inhibit the processing of exogenous OVA antigen by the class I major histocompatibility pathway (MHC-I). The MCP inhibitors were applied to a functional antigen processing system that allows inclusion of the inhibitor within the antigen processing cell during exposure to antigen, followed by fixation of the processing cell. T cell hybridomas are then added to the processing cells in the absence of inhibitor to determine the expression of peptide-MHC-I complexes, which reflects antigen processing prior to fixation.
Cells were grown at 37° C. in a humidified atmosphere maintained at 5% CO2 in a standard medium: DMEM (Gibco, St. Louis, Mo.) with 10% fetal calf serum (Hyclone, Logan Utah), 5×10^-5 M 2-mercaptoethanol, antibiotics and the following supplements: L-arginine HCl (116 mg/L), L-asparagine (36 mg/L), NaHCO3 (2 g/L), sodium pyruvate (1 mM). See also Harding, C. V., (1992) Eur. J. Immunol. 22: 1865-1869. […]
Electroporation was performed with a Gibco BEL Electroporator using 0.4 cm gap cuvette chambers. […] The extent of processing, (i.e., the level of specific peptide-MHC complexes expressed) was determined by the ability of the M12.B6 cells to stimulate IL-2 secretion by B3.1 or DOBW T hybridoma cells. […]

[3] = test system: Ile113→Thr mutant SOD-1 in human 293 cells; assay: SOD-1 levels in transiently transfected 293 cells (immunoblot); settings: 5 μM, 24 hours, FIG. 5
Experimental: The human kidney cell line designated 293 (human 293 cells or 293 cells)was obtained from the American Type Culture Collection (ATCC), 12301 Parklawn Drive, Rockville, Md., 20852 (ATCC #CRL 1573) and grown in Dulbecco's modified Eagle's medium with 4.6 g/L glucose, 10% heat-inactivated horse serum (Gibco/Life Technologies Inc. Gaithersburg, Md.). The human 293 cells were maintained at 37° C. in an atmosphere of 5% CO2. The 293 cells were transiently transfected using the calcium phosphate method (Chen, C. et al., Biotechniques 6: 632 (1988). The pCMV-113 SOD-1 expression vector was introduced into 293 cells and 24 hours later, the cells were incubated with either compound 34, compound 14, or compound 24, all at a concentration of 5 μM, for a duration of 24 hours. The known MCP and other protease inhibitory compounds were solubilized in dimethyl sulfoxide (DMSO). Other 293 cell cultures were incubated with an equal volume of DMSO or left in medium only as negative controls.
Approximately 48 hours prior to receiving test compounds, 5×10^5 293 cells were seeded in 36 mm dishes and maintained at 37° C. in an atmosphere of 5% CO2. Cells were incubated with MCP inhibitors (compound 34, 14 or 24) or with DMSO as a negative control for a duration of 24 hours. Cell lysates were prepared by lysing the cells in approximately 75 μl of phosphate-buffered saline (PBS) by freeze/thaw cycling. Protein concentrations of the cell lysates were determined using the BCA method (Pierce, Rockford, Ill.) and 2 to 2.5 μg of each sample was electrophoresed on a 4-20% polyacrylamide geol (Novex, San Diego, Calif.) using a Tris/glycine/SDS (25 mM Tris/192 mM glycine/0.1% SDS) buffer system. […] Stained bands corresponding to SOD-1 protein were quantitated using a DocuGel V image analysis system and RFLPscan software (Scanalytics, Billerica, Mass.). Levels of SOD-1 are expressed as units of induction relative to the negative control (i.e., units of experimental divided by units of control).

## CC(C)C[C@@H](C=O)NC(=O)[C@H](CCCNC(=N)N[N+](=O)[O-])NC(=O)C(CCCCCCCCC#N)C1CCCC1 (stereo partly drawn) [Compound 14, 10-cyano-2-cyclopentyldecanoyl-N^g-nitro-L-arginyl-L-leucinal]
Control soleus muscle
  Protein, Treatment (control muscle): 6.1 mg/muscle
[1]
  Protein, End (day 3 of unweighting): 6.4 mg/muscle
  Effect (%), change in protein content during day 3 of unweighting: 0%
  Effect (%) on unweighted muscle protein: 7%
  Protein, Treatment (unweighted muscle): 6.4 mg/muscle
[2]
  Effect on MHC-1 OVA processing: effectively inhibit OVA processing
[3]
  SOD-1 levels compared to controls: modestly elevated

## COC(=O)CCCCCCCC(C(=O)N[C@@H](CCCNC(=N)NS(=O)(=O)c1c(C)c(C)c2c(c1C)CCC(C)(C)O2)C(=O)N[C@H](C=O)CC(C)C)C1CCCC1 (stereo partly drawn) [Compound 20, 9-Methoxycarbonyl-2-cyclopentyl-nonanoyl-N^g-(2,2,5,7,8-pentamethylchroman-6-sulfonyl)-L-arginyl-L-leucinal]
Control soleus muscle
  Protein, Treatment (control muscle): 5.9 mg/muscle
[1]
  Protein, End (day 3 of unweighting): 6.2 mg/muscle
  Effect (%), change in protein content during day 3 of unweighting: -4%
  Effect (%) on unweighted muscle protein: 5%
  Protein, Treatment (unweighted muscle): 6.2 mg/muscle
[2]
  Effect on MHC-1 OVA processing: effectively inhibit OVA processing

Reference: patent US5990083A, “Multicatalytic protease inhibitors” (Cephalon, Inc., priority 1997, dated 1999)
